US7381401B2, “T cell anergy is reversed by active Ras and regulated by diacylglycerol kinase” (The University of Chicago, priority 2004, dated 2008)

Experiments:
[1] = system: CAR transgenic Th1 clones; assay: IL-2 production by CAR transgenic Th1 clones overexpressing DGK isoforms; format: cell-based, mouse
Experimental: Adenoviral vectors. The CA H-Ras mutant Ras61L cDNA was provided by Dr. F. Fitch (University of Chicago). Construction of recombinant adenoviral vectors was performed using a two-cosmid system protocol described by Wang et al. (2000). Briefly, a gene expression unit containing a human ubiquitin promoter and either HRas61L, GFP, DGKα, kinase-dead DGKα, DGKζ, or no cDNA was inserted into a left-end plasmid, pLEP. pLEPUb-Ras61L and the right-end-plasmid, pREP, containing the E-deleted adenovirus type 2 (Ad2) genome, were digested, ligated and resulting cosmids were packaged into lambda phages. The DGKα kinase-dead DGKα, and DGKζ inserts also have a myc epitope tag. Competent bacteria were transduced with lambda phages and double selection of growing colonies was performed on Amp/Tet plates. Recombinant adenoviruses were then generated by transfection of 293 cells with purified, linearized adenoviral vector DNA. High titer stock solutions were obtained by large-scale infection of 293 cells followed by cesium chloride purification of complete viral particles. Plaque forming units (pfu) of virus preparations were determined by TCID 50 method (AdEasy Vector Systems Manual, Quantum Biotechnologies, Canada). Working solutions of adenoviral vectors were diluted in storage buffer (Nyberg-Hoffman and Aguilar-Cordova, 1999), and stored at −80° C. until needed. […]

[2] = system: anergic Th1 cells; assay: Toxicity of the DGK inhibitor to anergic Th1 cells; format: cell-based, mouse; conditions: higher concentrations (data not shown)
Source text: If increased DGK activity is contributing to diminished Ras activation and IL-2 production in the anergic state, then inhibition of this enzyme should result in increased IL-2 production by anergic cells. To explore this possibility, the pharmacologic inhibitor R59022 was employed (Jiang et al., 2000). […] Approximately 40% of this IL-2 production was recovered by stimulation with PMA+Ionomycin, arguing that that proportion was mediated by a proximal signaling defect.

[3] = system: anergic Th1 cells; assay: IL-2 production by anergic Th1 clone pGL10 (ELISA); format: cell-based, mouse
Source text: (§1) Induction of T cell anergy.

[4] = system: anergic CAR Tg Th1 cells; assay: IL-2 production by anergic CAR Tg Th1 cells (ELISA); format: cell-based, mouse; conditions: stimulated with anti-CD3/anti-CD28 beads
Source text: Induction of T cell anergy. […] Adenoviral transduction of […] cells. […] T cell activation.

[5] = target: DGKα (Homo sapiens, UniProt P23743); conditions: cited from earlier work
Chain of DGKα (P23743 whole entry, species assumed): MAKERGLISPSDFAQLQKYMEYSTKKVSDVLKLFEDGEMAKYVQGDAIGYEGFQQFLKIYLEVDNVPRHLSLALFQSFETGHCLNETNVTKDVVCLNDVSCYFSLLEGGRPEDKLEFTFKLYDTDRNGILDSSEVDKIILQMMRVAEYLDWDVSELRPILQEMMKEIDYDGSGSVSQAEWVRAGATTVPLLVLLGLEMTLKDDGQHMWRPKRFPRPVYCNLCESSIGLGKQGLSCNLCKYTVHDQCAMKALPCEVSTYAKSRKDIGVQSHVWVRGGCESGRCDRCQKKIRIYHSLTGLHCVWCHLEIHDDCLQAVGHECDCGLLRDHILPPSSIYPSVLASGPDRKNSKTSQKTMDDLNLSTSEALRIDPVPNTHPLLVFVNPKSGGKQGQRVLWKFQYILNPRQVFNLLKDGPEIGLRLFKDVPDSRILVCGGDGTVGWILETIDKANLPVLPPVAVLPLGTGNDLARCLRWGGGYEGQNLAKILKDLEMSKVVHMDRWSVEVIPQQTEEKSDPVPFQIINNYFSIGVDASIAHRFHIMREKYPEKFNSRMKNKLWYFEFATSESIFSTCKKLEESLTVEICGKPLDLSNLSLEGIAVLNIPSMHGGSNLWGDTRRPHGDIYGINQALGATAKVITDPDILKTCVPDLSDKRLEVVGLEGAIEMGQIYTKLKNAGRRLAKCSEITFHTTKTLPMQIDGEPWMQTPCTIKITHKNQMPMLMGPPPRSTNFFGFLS

[6] = system: DGK-ζ mRNA; assay: Semi-quantitative RT-PCR of DGK-ζ mRNA in pGL10 cells; format: cell-based, mouse; conditions: pGL10 cells treated with ionomycin
Experimental: as §1
(§2) RT-PCR. Total RNA was extracted using Trizol, and cDNA was generated using oligo-dT as a primer. PCR™ was done with titrated doses of cDNA using primers specific for the following genes: […]
(§3) Between 36 and 39 cycles were performed at an annealing temperature of 55° C. Products were visualized on ethidium bromide-stained 1% agarose gels.

[7] = system: Egr2 mRNA; assay: Semi-quantitative RT-PCR of Egr2 mRNA in pGL10 cells; format: cell-based, mouse; conditions: pGL10 cells treated with ionomycin
Experimental: as §1, §2, §3

CCCCCCCCCCCCCC(=O)O[C@@H]1[C@@H](C)[C@@]2(O)[C@@H](C=C(CO)C[C@]3(O)C(=O)C(C)=C[C@@H]23)[C@@H]2C(C)(C)[C@]12OC(C)=O [PMA]
IL-2 production on addition of exogenous PMA ([1]; cells transduced to express DGKα): restored IL-2 production
IL-2 production on addition of exogenous PMA ([1]; cells transduced to express DGKζ): restored IL-2 production

Cc1nc2sccn2c(=O)c1CCN1CCC(=C(c2ccccc2)c2ccc(F)cc2)CC1 [R59022, 6-[2-(4-[(4-fluorophenyl)phenyl-methylene]-1-piperidinyl)ethyl]-7-methyl-5H-thiazolo[3,2-]pyrimidine-5-one]
toxicity to the cells [2]: toxic to the cells
recovery of IL-2 production ([3]; anergic Th1 clone pGL10 stimulated with anti-CD3+anti-CD28, increasing concentrations, 25 min pre-incubation, ELISA): significant recovery of IL-2 production in a dose-dependent fashion
cytokine release by the inhibitor alone ([3]; anergic cells, no anti-CD3/anti-CD28 stimulation (data not shown)): did not induce detectable cytokine release
IL-2 production [4]: partially restored IL-2 production
DGK isoform preference [5]: preferentially inhibits DGKα

C[C@H](CCC(=O)O)C[C@H](C)C[C@H](C)C(=O)/C=C(\O)[C@H](C)C[C@H](C)C/C=C/[C@@H](C)[C@@H](O)[C@@H](C)[C@@H](O)C[C@@H]1CC[C@@](C)([C@H]2CC[C@@](C)([C@@H](C)O)O2)O1 [ionomycin]
expression of DGK-ζ mRNA [6]: upregulated
Egr2 mRNA [7]: only a minimal increase
